Reference: patent US9133115B2 (ACHILLION PHARMACEUTICALS, INC., priority 2008, dated 2015)

What follows are molecules tested on HCV replicon (assay: HCV replicon replication assay (NPT ELISA) in Huh-7 replicon-containing cells). Settings: Hepatitis C virus, 72 h; HCV replicon in Huh-7 cells, three days incubation; read-out: EC50.
Assay type: cell-based
Summary of the method: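 Replication was scored by capture ELISA of neomycin phosphotransferase, whose level tracks replicon replication, after graded compound treatment. The cells were Huh-7 harbouring an HCV-IRES/neo/EMCV-IRES/NS3–NS5B/3′-NTR replicon, plated at 6000-7500 cells/well and dosed 24 h later at 60-70% confluence; interferon alpha was the positive control.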

Compound | EC50
C=C[C@@H]1C[C@]1(NC(=O)[C@@H]1C[C@@H](Oc2cc(-c3ccccc3)nc3cc(OC)ccc23)CN1C(=O)[C@@H](CC(=O)N1CCN(c2cnccn2)CC1)C(C)(C)C)C(=O)NS(=O)(=O)C1CC1 [Compound 196, (2S,4R)-1-((S)-2-tert-butyl-4-oxo-4-(4-(pyrazin-2-yl)piperazin-1-yl)butanoyl)-N-((1R,2S)-1-(cyclopropyl-sulfonylcarbamoyl)-2-vinylcyclopropyl)-4-(7-methoxy-2-phenylquinolin-4-yloxy)pyrrolidine-2-carboxamide] | < 1000 nM
C=C[C@@H]1C[C@]1(NC(=O)[C@@H]1C[C@@H](NC(=O)n2c3ccccc3c3ccccc32)CN1C(=O)[C@@H](CC(=O)N1CC2CC3CC(C2)CC1C3)C(C)(C)C)C(=O)NS(=O)(=O)C1CC1 [Compound 197] | < 1000 nM
C=C[C@@H]1C[C@]1(NC(=O)[C@@H]1C[C@@H](NC(=O)n2c3ccccc3c3ccccc32)CN1C(=O)[C@@H](CC(=O)N1CC2CCC1C2)C(C)(C)C)C(=O)NS(=O)(=O)C1CC1 (stereo partly drawn) [Compound 198, N-((3R,5S)-1-((2S)-2-(2-(2-aza-bicyclo[2.2.1]heptan-2-yl)-2-oxoethyl)-3,3-dimethylbutanoyl)-5-((1R)-1-(cyclo-propylsulfonyl-carbamoyl)-2-vinylcyclopropyl-carbamoyl)pyrrolidin-3-yl)-9H-carbazole-9-carboxamide] | < 1000 nM
C=CC1C[C@]1(NC(=O)[C@@H]1C[C@@H](NC(=O)c2cc(-c3ccccc3)nc3ccccc23)CN1C(=O)[C@@H](CC(=O)N1CCC(C(F)(F)F)CC1)C(C)(C)C)C(=O)NS(=O)(=O)C1CC1 (stereo partly drawn) [Compound 199, N-((3R,5S)-1-((S)-2-tert-butyl-4-oxo-4-(4-(trifluoromethyl)piper-idin-1-yl)butanoyl)-5-((1R,2S)-1-(cyclo-propylsulfonyl-carbamoyl)-2-vinyl-cyclopropyl-carbamoyl)pyrrolidin-3-yl)-2-phenylquinoline-4-carboxamide] | < 1000 nM
C=C[C@@H]1C[C@]1(NC(=O)[C@@H]1C[C@@H](NC(=O)c2cc(-c3ccccc3)nc3ccccc23)CN1C(=O)[C@@H](CC(=O)N1CCC(F)(F)CC1)C(C)(C)C)C(=O)NS(=O)(=O)C1CC1 [Compound 200, N-((3R,5S)-1-((S)-2-tert-butyl-4-(4,4-difluoropiperidin-1-yl)-4-oxobutanoyl)-5-((1R,2S)-1-(cyclopropylsulfonyl-carbamoyl)-2-vinylcyclopropyl-carbamoyl)pyrrolidin-3-yl)-2-phenylquinoline-4-carboxamide] | < 1000 nM
C=C[C@@H]1C[C@]1(NC(=O)[C@@H]1C[C@@H](NC(=O)c2cc(-c3ccccc3)nc3ccccc23)CN1C(=O)[C@@H](CC(=O)N1CCC(F)(F)C1)C(C)(C)C)C(=O)NS(=O)(=O)C1CC1 [Compound 201, N-((3R,5S)-1-((S)-2-tert-butyl-4-(3,3-difluoropyrrolidin-1-yl)-4-oxobutanoyl)-5-((1R,2S)-1-(cyclopropylsulfonyl-carbamoyl)-2-vinylcyclopropyl-carbamoyl)pyrrolidin-3-yl)-2-phenylquinoline-4-carboxamide] | < 1000 nM
C=C[C@@H]1C[C@]1(NC(=O)[C@@H]1C[C@@H](NC(=O)c2cc(-c3ccccc3)nc3ccccc23)CN1C(=O)[C@@H](CC(=O)N1CCCC(F)(F)C1)C(C)(C)C)C(=O)NS(=O)(=O)C1CC1 [Compound 202, N-((3R,5S)-1-((S)-2-tert-butyl-4-(3,3-difluoropiperidin-1-yl)-4-oxobutanoyl)-5-((1R,2S)-1-(cyclo-propylsulfonyl-carbamoyl)-2-vinyl-cyclopropyl-carbamoyl)pyrrolidin-3-yl)-2-phenylquinoline-4-carboxamide] | < 1000 nM
C=C[C@@H]1C[C@]1(NC(=O)[C@@H]1C[C@@H](NC(=O)c2cc(-c3ccccc3)nc3ccccc23)CN1C(=O)[C@@H](CC(=O)N1CCCCCC1)C(C)(C)C)C(=O)NS(=O)(=O)C1CC1 [Compound 203, N-((3R,5S)-1-((S)-4-(azepan-1-yl)-2-tert-butyl-4-oxobutanoyl)-5-((1R,2S)-1-(cyclo-propylsulfonyl-carbamoyl)-2-vinylcyclopropyl-carbamoyl)pyrrolidin-3-yl)-2-phenylquinoline-4-carboxamide] | < 1000 nM
C=C[C@@H]1C[C@]1(NC(=O)[C@@H]1C[C@@H](NC(=O)c2cc(-c3ccccc3)nc3ccccc23)CN1C(=O)[C@@H](CC(=O)N1CCCC(F)C1)C(C)(C)C)C(=O)NS(=O)(=O)C1CC1 (stereo partly drawn) [Compound 204, N-((3R,5S)-1-((2S)-2-tert-butyl-4-(3-fluoropiperidin-1-yl)-4-oxobutanoyl)-5-((1R,2S)-1-(cyclopropylsulfonyl-carbamoyl)-2-vinyl-cyclopropyl-carbamoyl)pyrrolidin-3-yl)-2-phenylquinoline-4-carboxamide] | < 1000 nM
C=C[C@@H]1C[C@]1(NC(=O)[C@@H]1C[C@@H](NC(=O)c2cc(-c3ccccc3)nc3ccccc23)CN1C(=O)[C@@H](CC(=O)N1CCC(F)CC1)C(C)(C)C)C(=O)NS(=O)(=O)C1CC1 [Compound 205, N-((3R,5S)-1-((S)-2-tert-butyl-4-(4-fluoropiperidin-1-yl)-4-oxobutanoyl)-5-((1R,2S)-1-(cyclopropylsulfonyl-carbamoyl)-2-vinyl-cyclopropyl-carbamoyl)pyrrolidin-3-yl)-2-phenylquinoline-4-carboxamide] | < 1000 nM
C=C[C@@H]1C[C@]1(NC(=O)[C@@H]1C[C@@H](Oc2cc(-c3ccccn3)nc3c(Cl)c(OC)ccc23)CN1C(=O)[C@@H](CC(=O)N1CCC(F)(F)C1)C(C)(C)C)C(=O)NS(=O)(=O)C1CC1 [Compound 206, (2S,4R)-1-((S)-2-tert-butyl-4-(3,3-difluoropyrrolidin-1-yl)-4-oxobutanoyl)-4-(8-chloro-7-methoxy-2-(pyridin-2-yl)quinolin-4-yloxy)-N-((1R)-1-(cyclopropylsulfonyl-carbamoyl)-2-vinylcyclopropyl)pyr-rolidine-2-carboxamide] | < 1000 nM
C=C[C@@H]1C[C@]1(NC(=O)[C@@H]1C[C@@H](Oc2cc(-c3ccccn3)nc3c(Cl)c(OC)ccc23)CN1C(=O)[C@@H](CC(=O)N1CCCC1C(F)(F)F)C(C)(C)C)C(=O)NS(=O)(=O)C1CC1 (stereo partly drawn) [Compound 207, (2S,4R)-1-((2S)-2-tert-butyl-4-oxo-4-(2-(trifluoromethyl)pyr-rolidin-1-yl)butanoyl)-4-(8-chloro-7-methoxy-2-(pyridin-2-yl)quinolin-4-yloxy)-N-((1R)-1-(cyclopropylsulfonyl-carbamoyl)-2-vinylcyclopropyl)pyr-rolidine-2-carboxamide] | < 1000 nM
C=C[C@@H]1C[C@]1(NC(=O)[C@@H]1C[C@@H](Oc2cc(-c3ccccn3)nc3c(Cl)c(OC)ccc23)CN1C(=O)[C@@H](CC(=O)N1CCC(C(F)(F)F)CC1)C(C)(C)C)C(=O)NS(=O)(=O)C1CC1 [Compound 208, (2S,4R)-1-((S)-2-tert-butyl-4-oxo-4-(4-(trifluoro-methyl)piperidin-1-yl)butanoyl)-4-(8-chloro-7-methoxy-2-(pyridin-2-yl)quinolin-4-yloxy)-N-((1R)-1-(cyclopropyl-sulfonylcarbamoyl)-2-vinylcyclo-propyl)pyrrolidine-2-carboxamide] | < 1000 nM
C=C[C@@H]1C[C@]1(NC(=O)[C@@H]1C[C@@H](Oc2cc(-c3ccccn3)nc3c(Cl)c(OC)ccc23)CN1C(=O)[C@@H](CC(=O)N1CCCC(F)C1)C(C)(C)C)C(=O)NS(=O)(=O)C1CC1 (some centres unmarked) [Compound 209] | < 1000 nM
